Where “and” joins values, the source holds several entries; their conditions need not be identical. Identical values can stand only once. Calls of active or inactive are those of the source.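 The calls were made as follows: active = compounds giving half or more protection of infected cells from virus-caused growth loss, again on retest; inactive = the rest.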
Tested on: CEM cells HIV-1 protection, formazan growth assay
Assay: NCI AIDS Antiviral Assay
Settings: for IC50: measured here: growth of uninfected CEM cells
In short: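 Five concentrations of each compound were applied to infected and uninfected human CEM cells. Protection from HIV-1 was judged from growth measured with a soluble formazan assay.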

Row | Structure (SMILES) | outcome | EC50 | IC50 [µM]
1 | COc1cc(CC2c3cc(OC)c(OC)cc3CC[N+]2(C)C)c(Oc2cc(CC3c4cc(OC)c(OC)cc4CC[N+]3(C)C)ccc2OC)cc1OC (stereo not given) | inactive | – | –
2 | CSc1nnc(C(C#N)C#N)nn1 | inactive | – | –
3 | CCOC(=O)c1nc(-c2ccccc2)c(-c2ccccc2)c(-c2ccccc2)c1C | – | > 5.13 µM | > 5.13
4 | CC(=O)Oc1c2c(cc3c1C(=O)NC1C3=CC(OC(C)=O)[C@@H](OC(C)=O)[C@H]1OC(C)=O)OCO2 (stereo not given in full) | inactive | – | –
5 | CC(=O)NC1=NC(=O)/C(=C/c2ccc3c(c2)OCO3)N1C | – | > 200 µM | > 200
6 | Cc1ccc(S(=O)(=O)Nc2cccc3c(=O)[nH]cnc23)cc1 | – | > 83.2 µM | 13.8
7 | COc1ccc(/C=C2\NC(=S)N(CN3CCCCC3)C2=O)cc1 | – | > 200 µM | 30.9
8 | Cn1c(-c2ccc(Br)cc2)cc2[nH]c(=S)nc(N)c2c1=O | – | > 100 µM | > 100
9 | CN(/N=C(\C(=O)O)c1ccccc1)C1=NCCCN1 | – | > 200 µM | > 200
10 | COc1ccc(OC)c(CCc2cc(OC)c(OC)cc2C)c1 | – | > 58.9 µM | 2.82
11 | O=c1ccc(=O)n(CCc2ccccn2)[nH]1 | – | > 200 µM | > 200
12 | COC(=O)c1cc(C#N)[nH]c1-c1cc(Br)cs1 | – | > 200 µM | 11.7
13 | O=S(=O)([O-])C(F)(F)F.[Ru+2].[Ru+2].c1ccc2c(c1)Cc1ccccc1-2 | – | > 100 µM | > 100
14 | O=S(=O)(O)O | – | > 263 µM | 40.7
15 | COc1nc2c(c(=O)n1C)NC(C(O)C(O)CO)C=N2 (stereo not given) | – | 182 µM and 174 µM | > 200
16 | COc1cc(C=Nc2cc(Cl)c(N=O)c(Cl)c2)ccc1N(CCCCl)CCCCl | – | 5.25 µM | 22.4
17 | C1=C(C2CCCC3[C@@H]4C[C@@H](CN23)C2CCCCN2C4)CCC2[C@H]3C[C@H](CN12)C1CCCCN1C3 (stereo not given in full) | – | > 21.4 µM | > 21.4
18 | O=c1c2cc(-c3ccccc3)sc2nc2n1N=C(c1ccccc1)CS2 | – | > 200 µM | > 200
19 | C#CC(O)CS(=O)(=O)c1ccccc1 (stereo not given) | – | > 100 µM | > 100
20 | O=C(/N=N/C(=O)Oc1ccccc1)Oc1ccccc1 | – | > 200 µM | 33.1
21 | CC1=C(C)C2(OC1=O)C(O)C(C)[C@]1(O)CCC3C4CC=C5CC=CC(=O)[C@]5(C)C4C[C@@]2(O)[C@@]31C (stereo not given in full) | inactive | – | –

Row | Structure (SMILES) | outcome | EC50 | IC50 [µM]
22 | c1ccc2c(c1)oc1cc3c(cc12)n1nnnc1c1cccn31 | – | > 200 µM | > 200
23 | CN(C)c1ccc(/C=C(\C#N)c2ccc([N+](=O)[O-])cc2)c(Cl)c1 | – | > 100 µM | 75.9
24 | COc1cc(/C=C/C(=O)CC(=O)/C=C/c2ccc(O)cc2)ccc1O | – | > 200 µM | 11.7
25 | Cc1ccc(NC(=O)CC(=O)n2nc(C)c(N=Nc3cccc(C)c3)c2C)cc1 | – | > 200 µM | > 200
26 | CN1CCN(CCCCN2c3ccccc3Sc3ccc(C(=O)c4ccccc4)cc32)CC1 | – | > 100 µM | 4.47
27 | COc1ccc(C2=NNc3n[nH]c(=S)n3N2)cc1OC | – | > 64.6 µM | > 64.6
28 | O=C(O)c1ccc(/C=C/c2ccc(N=Nc3c(O)cc(O)cc3C(=O)O)cc2C(=O)O)cc1 | – | > 200 µM | 120
29 | CCNc1nnc(-c2ccccc2Nc2ccccc2-c2nnc(NCC)s2)s1 | – | > 200 µM | 16.2
30 | O=c1c2cccc3cccc(c4oc5c6cccc7cccc(c(=O)c5c14)c76)c32 | inactive | – | –
31 | CC1(C)CC[P+](CC[P+]2(c3ccccc3)CCC(C)(C)c3ccccc32)(c2ccccc2)c2ccccc21 (stereo not given) | – | > 407 µM | 64.6
32 | O=c1c(=[n+]2ccc(=C([O-])c3ccccc3)cc2)/c(=N/S(=O)(=O)c2ccccc2)c(=O)c2ccccc12 | – | > 200 µM | 6.17
33 | CCN(CC)CC(=O)Nc1cccc(C(=O)OC(C)C)c1 | – | > 200 µM | > 200
34 | C=CCNC(=O)N(CCC)CCCC(NC(C)=O)C(=O)NCc1ccccc1 (stereo not given) | – | > 646 µM | > 646
35 | CCCC#CCC(CC#CCCC)(C(=O)O)C(=O)O | – | > 490 µM | > 490
36 | CC(C)(C)OC(=O)NCCC(N)=S | – | > 646 µM | 174
37 | COC(=O)C1(O)C(c2ccccc2)NC2(C)CCCC21 (stereo not given) | – | > 200 µM | > 200
38 | C[C@@]12CCC[C@@H](OC(=O)c3ccc(Br)cc3)[C@@H](C1)C(=O)CC2 | inactive | – | –
39 | O=c1[nH]c2ccccc2c(O)c1CCCC1CCCCC1 | – | > 200 µM | 132
40 | CC(C)(C)C1=CC(=NC(=O)c2cc([N+](=O)[O-])cc([N+](=O)[O-])c2)C=C(C(C)(C)C)C1=O | – | > 6.03 µM | > 6.03
41 | CCc1cccc(C(C)C)c1NC(=O)C(=O)CC(=O)c1sc(Nc2c(CC)cccc2C(C)(C)C)nc1C | – | > 200 µM | 60.3
42 | N/N=C1/C(=O)N(c2ccc(Cl)cc2)C(=O)C(=O)C1c1nc2ccccc2s1 (stereo not given) | – | > 18.2 µM | > 18.2

Row | Structure (SMILES) | outcome | EC50 | IC50 [µM]
43 | O=S(OCC1COS(=O)O1)OCC1COS(=O)O1 (stereo not given) | – | > 776 µM | 77.6
44 | Fc1ccc(C2SCc3nc4ccccc4n32)c(F)c1 (stereo not given) | inactive | – | –
45 | COc1ccc(/C=C2/CCS(=O)(=O)c3ccc(C)cc3C2=O)cc1OC | – | > 200 µM | 6.03
46 | O=C1C(=O)N(c2ccc(Cl)cc2Cl)C(=O)C(=O)C1c1nc2ccccc2o1 | – | > 85.1 µM | > 85.1
47 | O=C(NCC(=O)N1CCCC1C(=O)OC(=O)C1CCCN1C(=O)CNC(=O)OCc1ccccc1)OCc1ccccc1 (stereo not given) | – | > 38 µM | 30.2
48 | Cc1nn2c(=O)c([N+](=O)[O-])c(/C=C/c3ccc(F)cc3)nc2s1 | – | > 200 µM | 5.25
49 | C/C=C/C=N/N(C(=O)c1cc([N+](=O)[O-])cc([N+](=O)[O-])c1)C1=NC(c2ccccc2)C(c2ccccc2)=NN1 (stereo not given) | – | > 36.3 µM | > 36.3
50 | CC(CCC(=O)O)[C@H]1CCC2[C@@H]3CC(O)[C@@H]4CC(O)CC[C@]4(C)C3CC[C@@]21C (stereo not given in full) | – | > 200 µM | 72.4
51 | C=CC[C@]1(C(C)Cc2ccc(OC)c(OC)c2)C[C@@H](OC)C=CC1=O (stereo not given in full) | – | > 10 µM | 2.88
52 | CCCn1c2c(c3ccccc3c1=O)C(=O)c1ccccc1-2 | – | > 18.2 µM | > 18.2
53 | Cc1cc(/C=C/c2cc[n+](C)c3ccccc23)c(O)c2ncccc12 | – | > 398 µM | 0.759
54 | COC(=O)[C@H](COC(=O)/C=C/c1ccc(OC(C)=O)c(OC(C)=O)c1)NC(=O)/C=C/c1ccc(OC(C)=O)c(OC(C)=O)c1 | – | > 100 µM | 17.8
55 | COC(=O)C12CC(c3ccccc31)C1C(=O)OC(=O)C12 (stereo not given) | – | > 132 µM | > 132
56 | COC(=O)C1=C(C=O)C2C=CC1C2 (stereo not given) | inactive | – | –
57 | CCN(CC)CCOc1ccc(N2C(=O)c3cccc4cc([N+](=O)[O-])cc(c34)C2=O)cc1 | – | > 200 µM | 2.45
58 | N#CCC1(c2ccc(Cl)cc2)NC(=O)c2ccccc21 (stereo not given) | – | > 200 µM | 117
59 | O=C(c1ccccc1)c1oc2ccc(Br)cc2c1-c1cnn(-c2ccccc2)c1 | inactive | – | –
60 | S=C1c2cc(Cl)ccc2NC(=NC2CCCC2)C2CSCN12 (stereo not given) | – | > 200 µM | 33.9
61 | CC(C)OP(=O)(CN(C)/C(F)=N\C(F)(F)F)OC(C)C | – | > 200 µM | > 200
62 | NNC(=S)N/N=C(/C(=O)Nc1ccc(Cl)c(Cl)c1)C(C1OC(=O)c2ccccc21)[N+](=O)[O-] (stereo not given) | – | > 501 µM | 257

From PubChem BioAssay AID179 (DTP/NCI, 2004)
